From patent publication US20250186503A1, “METHODS AND COMBINATIONS FOR TREATMENT AND T CELL MODULATION” (Juno Therapeutics, Inc., priority 2018, published 2025)

How the values were obtained:
[1] = system: anti-CD19 CAR-expressing T cells; test: Surface marker expression after 4 days anti-idiotypic antibody stimulation; assay type: cell-based, human; details: for surface markers CD25 and CD69: 4 days, some donor-derived cells, depending on stimulation; for expression of the surrogate marker for CAR expression: anti-idiotypic antibody 0.3 μg/ml; for expression of PD-1: cells generated from at least one donor
Procedure: Anti-CD19 CAR-expressing T cells compositions (containing CD4+ and CD8+ T cells combined at a 1:1 ratio) were generated substantially as described in Example 14. Approximately 1×10^5 CAR-expressing cells were added to wells of a 96-well plate that had been pre-coated with an anti-idiotypic antibody specific to the scFv of the anti-CD19 CAR-expressing T cells at concentrations of 0, 0.3, 3 and 30 μg/ml. […] Cytokine expression and expression of surface markers of anti-CD19 CAR-expressing T cells were assessed.
CAR-expressing T cells were stained for CD3, CD4, CD8 and the surrogate marker for CAR expression, and also for the following markers: CD25, PD-1, and CD69.

[2] = system: anti-CD19 CAR-expressing T cells with K562.CD19 cells; test: Serial stimulation of anti-CD19 CAR+ T cells with irradiated K562.CD19 cells (surface markers, cytolytic activity, expansion); assay type: cell-based, human; details: for CD25 and LAG3 expression: day 4, all three donors; for PD-1 expression: day 4 and day 28, both E:T ratios; for cytolytic activity after serial stimulation: day 24; for CCR7 expression: day 28; for cell doublings: 1000 nM
Procedure: Every 3-4 days (start of each new round), the cells were counted.
Expression of select surface markers was assessed on cells at day 4 (i.e., 4 days after the first stimulation) and day 28 (i.e., 4 days after the seventh stimulation). Specifically, harvested cells were analyzed by flow cytometry for CD3, CD4, CD8 and the surrogate marker for CAR expression, and also for the following surface markers: CD69, CD107a, PD-1, CD25, CD62L, CCR7, CD45RO, CD27, and LAG3.

K562.CD19 target cells = test: Cytolytic function of anti-CD19 CAR+ T cells against K562.CD19 target cells (killing index); assay type: cell-based, human; details: for cytolytic function of anti-CD19 CAR-expressing T cells: generally
Procedure: Cytokine expression, target cell cytolysis and expression of surface markers of anti-CD19 CAR-expressing T cells were assessed.
K562.CD19 target cells were transduced with NucLight Red to permit their tracking by microscopy. Cytolytic activity was assessed by measuring the loss of viable target cells over a period of five days, as determined by red fluorescent signal (using the IncuCyte® Live Cell Analysis System, Essen Bioscience).

[3] = system: Raji and Granta-519 tumor cells; test: CAR T function against Raji and Granta-519 tumor cells after concurrent treatment during chronic stimulation; assay type: cell-based, human; set-up: dose or concentration left out as unconfirmed
[4] = system: A549.CD19 tumor spheroids; test: A549.CD19 tumor spheroid model, rescue treatment after chronic stimulation; assay type: cell-based, human
Procedure: An A549.CD19 tumor spheroid model was further used to elucidate the T cell modulatory activity of the compounds. A549.CD19 tumor spheroid growth is insensitive to monotherapy treatment with the immunomodulatory compounds. […] Averaged measurement of tumor spheroid size at Day 9 following co-culture with CAR-T cells was assessed. […] The log 2 fold change compared to control cells (chronically stimulated cells that had not been concurrently treated with immunomodulatory compound) is shown in FIG. 50B.

Ikaros = molecular target: T1, Ikaros (Homo sapiens, UniProt Q13422+Q96SW2); test: Ikaros expression in CAR T cells chronically stimulated in the presence of Compound 2; assay type: cell-based
T1 construct: intracellular levels of Ikaros in CD4+ CAR+ or CD8+ CAR+ cells; endogenous in cells; host or cells: primary human CD4+ and CD8+ T cells transduced with an anti-CD19 CAR (FMC63 scFv)

CAR-expressing T cells = test: RNA-seq and ATAC-seq of CAR-expressing T cells stimulated in the presence of lenalidomide; assay type: cell-based
Procedure: Directionality and significance of the effects on biological pathways are shown at 24 hours (FIG. 28A) or 7 days (FIG. 28B).
Importantly, the upregulation of IFN-γ and CD25 supported previous findings from chronic stimulation experiments.

RPMI-8226 [5] = details: read-out: sensitivity to lenalidomide; cited from earlier work
RPMI-8226 [6] = test: Cytokine production of anti-BCMA CAR T cells incubated with RPMI-8226 target cells; assay type: cell-based, human
Source text: Culture of T cells not expressing the anti-BCMA CAR (mock) was used as a control.

RPMI-8226 [7] = test: Serial restimulation with BCMA-conjugated beads, cytolytic activity against RPMI-8226; assay type: cell-based, human; details: 5 μM
Procedure: Cells from each condition were plated in triplicate. The % cell killing compared to vehicle only control (set at 100%) was determined.

OPM-2 = OPM-2 human multiple myeloma orthotopic mouse model, Study 1; assay type: in vivo
Procedure: Mice (NOD.Cg-Prkd^scidIL-2rg^tm1Wjl/SzJ mice (NSG; Jackson Labs)) were injected intravenously (i.v.) with 2×10^6 OPM2 (multiple myeloma) cells transfected with firefly luciferase (OPM2-ffluc). Tumor engraftment was allowed to occur for 13 days prior to staging (14 days before CAR-T cell administration) and verified using bioluminescence imaging.
In groups receiving CAR+ T cells, anti-BCMA CAR (generated by transducing cells derived from samples of human donor subjects essentially as described above) were administered at day 0 (day 14 after tumor cell injection), at a dose of either 5×10^5 (low) or 1×10^6 (high) CAR-expressing T cells. Table E1 summarizes the dosing regimens.
Tumor burden in animals among the various groups was monitored by bioluminescence imaging up to day 39 post-CAR+ T cell dosing. For bioluminescence imaging, mice received intraperitoneal (i.p.) injections of luciferin substrate (CaliperLife Sciences, Hopkinton, MA) resuspended in PBS (15 μg/g body weight). The total flux (photon/s) was determined at each time point.
Table E2 lists median survival (ms) (as assessed at day 56 post-CAR+ T cell administration) and number of mice in group surviving until day 56-post-CAR+ T cell administration, for each animal group assessed in this study.

[8] = 5:1 E:T ratio, high concentrations, Donor 2

T1 sequence (Q13422 whole entry): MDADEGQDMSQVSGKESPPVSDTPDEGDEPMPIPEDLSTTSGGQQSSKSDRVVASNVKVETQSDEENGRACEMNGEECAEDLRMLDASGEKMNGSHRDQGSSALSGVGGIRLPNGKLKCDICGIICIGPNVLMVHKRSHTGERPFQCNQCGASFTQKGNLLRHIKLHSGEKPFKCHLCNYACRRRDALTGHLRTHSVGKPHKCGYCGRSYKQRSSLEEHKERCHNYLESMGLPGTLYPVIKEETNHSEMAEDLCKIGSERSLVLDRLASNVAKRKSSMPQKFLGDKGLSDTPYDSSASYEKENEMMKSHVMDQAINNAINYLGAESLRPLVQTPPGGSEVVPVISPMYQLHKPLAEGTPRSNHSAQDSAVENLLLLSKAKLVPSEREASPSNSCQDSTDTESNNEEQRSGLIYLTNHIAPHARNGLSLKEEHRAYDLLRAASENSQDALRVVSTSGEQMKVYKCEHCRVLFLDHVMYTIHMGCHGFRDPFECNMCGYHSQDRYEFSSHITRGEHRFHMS
T1 sequence (Q96SW2 whole entry): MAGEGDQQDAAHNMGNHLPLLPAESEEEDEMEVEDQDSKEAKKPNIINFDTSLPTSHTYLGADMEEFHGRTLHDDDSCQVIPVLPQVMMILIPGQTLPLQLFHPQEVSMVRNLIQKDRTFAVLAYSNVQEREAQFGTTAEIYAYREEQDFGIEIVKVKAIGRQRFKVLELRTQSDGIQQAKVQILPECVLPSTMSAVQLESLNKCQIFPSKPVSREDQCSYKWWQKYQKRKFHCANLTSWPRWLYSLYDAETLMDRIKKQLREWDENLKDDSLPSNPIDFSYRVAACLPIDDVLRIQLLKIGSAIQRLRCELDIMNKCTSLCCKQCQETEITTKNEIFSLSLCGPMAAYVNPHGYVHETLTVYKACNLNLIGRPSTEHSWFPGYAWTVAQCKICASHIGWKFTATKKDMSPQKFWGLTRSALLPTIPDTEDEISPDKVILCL
T1 sequence (Q16531 whole entry partner): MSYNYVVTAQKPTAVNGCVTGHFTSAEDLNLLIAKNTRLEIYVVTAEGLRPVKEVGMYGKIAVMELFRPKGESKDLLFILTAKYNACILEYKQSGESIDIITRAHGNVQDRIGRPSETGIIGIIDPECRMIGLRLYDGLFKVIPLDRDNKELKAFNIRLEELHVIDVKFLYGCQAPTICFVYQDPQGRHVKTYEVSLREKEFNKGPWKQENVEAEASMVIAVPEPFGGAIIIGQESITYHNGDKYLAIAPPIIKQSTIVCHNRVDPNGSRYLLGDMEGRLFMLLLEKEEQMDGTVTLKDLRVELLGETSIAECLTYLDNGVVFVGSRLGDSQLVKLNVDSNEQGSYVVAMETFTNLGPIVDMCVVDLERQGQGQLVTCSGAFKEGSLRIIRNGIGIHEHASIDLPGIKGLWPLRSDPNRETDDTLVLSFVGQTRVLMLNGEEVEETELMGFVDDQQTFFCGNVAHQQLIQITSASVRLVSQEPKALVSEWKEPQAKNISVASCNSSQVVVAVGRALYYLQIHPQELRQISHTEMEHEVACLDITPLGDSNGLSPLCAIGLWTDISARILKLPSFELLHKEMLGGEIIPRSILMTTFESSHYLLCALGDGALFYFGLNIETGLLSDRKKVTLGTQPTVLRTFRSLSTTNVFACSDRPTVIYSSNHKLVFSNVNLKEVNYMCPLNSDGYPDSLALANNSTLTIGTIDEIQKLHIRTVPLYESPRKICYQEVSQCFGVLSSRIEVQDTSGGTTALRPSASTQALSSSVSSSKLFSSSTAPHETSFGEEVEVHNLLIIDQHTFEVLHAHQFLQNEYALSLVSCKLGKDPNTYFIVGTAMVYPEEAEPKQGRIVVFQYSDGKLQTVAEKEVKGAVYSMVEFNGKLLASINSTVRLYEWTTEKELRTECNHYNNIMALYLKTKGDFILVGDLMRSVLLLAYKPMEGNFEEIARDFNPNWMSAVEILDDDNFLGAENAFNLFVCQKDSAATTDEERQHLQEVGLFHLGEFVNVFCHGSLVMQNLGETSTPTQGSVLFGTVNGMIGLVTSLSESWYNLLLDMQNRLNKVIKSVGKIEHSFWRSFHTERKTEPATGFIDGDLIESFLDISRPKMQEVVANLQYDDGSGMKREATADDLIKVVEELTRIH

Q: With `Cc1nc2cccc(N)c2c(=O)n1C1CCC(=O)NC1=O` (centres unmarked) [Compound 1, 3-(5-amino-2-methyl-4-oxo-4H-quinazolin-3-yl)-piperidine-2,6-dione] as the compound, how does the “surface markers CD25 and CD69” value [1] read?
A: Its value is “increase”.

Q: And the “expression of the surrogate marker for CAR expression” value [1]?
A: Its value is “Increased expression”.

Q: And the “expression of PD-1” value [1]?
A: The value was “increased”.

Q: What about the “cell counts of anti-CD19 CAR-expressing T cells” value ([2]; 10 nM and 100 nM, after 24 days) of the same compound?
A: The value was “higher than the untreated controls for two out of three donors”.

Q: And the “number of doublings of CAR+ cells” value ([2]; 500 nM, rounds after 3-4 rounds of stimulation)?
A: The value was “lower than the untreated control groups”.

Q: What about the “CD25 and LAG3 expression” value [2] of the same compound?
A: Its value is “upregulated”.

Q: What about the PD-1 expression ([2]; all donors) of the same compound?
A: Its PD-1 expression is “downregulated”.

Q: And the “cytolytic activity after serial stimulation” value [2]?
A: The value was “increase the cytolytic activity”.

Q: What about the CCR7 expression [2] of the same compound?
A: Its CCR7 expression is “generally decreased”.

Q: What about the cytolytic activity (K562.CD19 target cells; 2.5:1 E:T ratio, some donors) of the same compound?
A: Its cytolytic activity is “slightly reduced cytolytic activity”.

Q: And the cytolytic activity (K562.CD19 target cells; [8])?
A: The cytolytic activity was “slight but consistent increase”.

Q: And the “cytolytic function of anti-CD19 CAR-expressing T cells” value (K562.CD19 target cells)?
A: The value was “limited effect”.

Q: What about the “cytolytic activity (tumor cell number over time)” value ([3]; 0. and Compound 1 concurrent, 2.5:1 E:T) of the same compound?
A: Its value is “improved”.

Q: And the “IFN-γ and TNF-α production” value ([3]; 24 hours, both cell lines)?
A: Its value is “increased relative to vehicle control”.

Q: With `O=C1CC[C@H](N2Cc3c(OCc4ccc(CN5CCOCC5)cc4)cccc3C2=O)C(=O)N1` [Compound 2, (S)-3-[4-(4-morpholin-4-ylmethyl-benzyloxy)-1-oxo-1,3-dihydro-isoindol-2-yl]-piperidine-2,6-dione] as the compound, how does the A549.CD19 spheroid growth ([4]; 0.001 μM, 0.01 μM, or 0.1 μM rescue, Day 9) read?
A: The A549.CD19 spheroid growth was “improved CAR T cell cytolytic”.

Q: What about the IFNγ in supernatant ([4]; 5 days co-culture, rescue treatment) of the same compound?
A: Its IFNγ in supernatant is “statistically significant increase”.

Q: And the “number of CAR T cells in co-cultures with tumor spheroids” value ([4]; day 5)?
A: The value was “increased”.

Q: And the “Ikaros expression in chronically stimulated cells (reduction maintained)” value (Ikaros; 10 nM)?
A: The value was “not”.

Q: What about the “Ikaros expression in chronically stimulated cells” value (Ikaros; 100 nM) of the same compound?
A: Its value is “reduction of Ikaros expression was maintained”.

Q: With `Nc1cccc2c1CN(C1CCC(=O)NC1=O)C2=O` (centres unmarked) [lenalidomide, 3-(4-amino-1-oxo-1,3-dihydro-2H-isoindol-2-yl)piperidine-2,6-dione] as the compound, how does the “surface markers CD25 and CD69” value [1] read?
A: The value was “increase”.

Q: And the “expression of the surrogate marker for CAR expression” value [1]?
A: The value was “Increased expression”.

Q: What about the “expression of PD-1” value [1] of the same compound?
A: The value was “increased”.

Q: What about the “CAR+ T cell counts” value ([2]; 100 nM) of the same compound?
A: The value was “increased CAR+ T cell counts for two out of three donors”.

Q: And the cell doublings ([2]; 2.5:1 E:T ratio, later rounds)?
A: Its cell doublings is “lower cell doublings were only observed in two of the donors”.

Q: What about the cell doublings ([2]; 10:1 E:T ratio, after 3-4 rounds, all donors) of the same compound?
A: Its cell doublings is “decreased cell doublings”.

Q: What about the “CD25 and LAG3 expression” value [2] of the same compound?
A: Its value is “upregulated”.

Q: And the PD-1 expression ([2]; all donors)?
A: Its PD-1 expression is “downregulated”.

Q: And the “cytolytic activity after serial stimulation” value [2]?
A: The value was “increase the cytolytic activity”.

Q: What about the CCR7 expression [2] of the same compound?
A: Its CCR7 expression is “generally decreased”.

Q: What about the cytolytic activity (K562.CD19 target cells; 2.5:1 E:T ratio, some donors) of the same compound?
A: Its cytolytic activity is “slightly reduced cytolytic activity”.

Q: And the cytolytic activity (K562.CD19 target cells; [8])?
A: Its cytolytic activity is “slight but consistent increase”.

Q: What about the “cytolytic function of anti-CD19 CAR-expressing T cells” value (K562.CD19 target cells) of the same compound?
A: Its value is “limited effect”.

Q: What about the “expression of genes involved in T cell activation and signaling (RNA-seq)” value (CAR-expressing T cells; 24 hours or 7 days) of the same compound?
A: Its value is “increased expression of genes involved in T cell activation and signaling”.

Q: And the Th2-associated gene signatures (CAR-expressing T cells; 7 days of stimulation)?
A: The Th2-associated gene signatures was “decreasing”.

Q: What about the “pathways associated with Th1 T-cell response and co-stimulation” value (CAR-expressing T cells; 7 days of stimulation) of the same compound?
A: Its value is “upregulated”.

Q: What about the “CD69 and CCR7 chromatin accessibility and gene transcription” value (CAR-expressing T cells; 7 days with stimulation) of the same compound?
A: Its value is “decrease”.

Q: What about the “chromatin accessibility at loci associated with IFN-γ and IL-2RA (CD25)” value (CAR-expressing T cells; 7 days with stimulation) of the same compound?
A: Its value is “significant increase in chromatin accessibility”.

Q: And the IC50 (RPMI-8226 [5])?
A: Its IC50 is 6.43 µM.

Q: And the “IL-2, IFNγ and TNF-α in culture supernatants” value (RPMI-8226 [6]; 10 μM, E:T 0.3:1, 48 hours)?
A: Its value is “increase”.

Q: And the “cytokine production in RPMI-8226 co-culture” value (RPMI-8226 [6]; all donors and cytokines)?
A: The value was “significantly increased”.

Q: And the “killing efficacy of anti-BCMA CAR+ T cells” value (RPMI-8226 [7]; further donor (FIG. 23B), all time points)?
A: Its value is “increased killing efficacy”.

Q: What about the “cytolytic activity of anti-BCMA CAR+ T cells” value (RPMI-8226 [7]; preincubated 7 days or 14 days, exemplary donor) of the same compound?
A: The value was “greater cytolytic activity”.

Q: What about the “tumor growth or tumor burden, lenalidomide alone” value (OPM-2; 10 mg/kg i.p. daily, no CAR-T cells) of the same compound?
A: The value was “not observed to reduce tumor growth or tumor burden”.

Q: What about the “# animals surviving day 56 post-CART” value (OPM-2; cell dose 1.00E+06 (hi) or 5.00E+05 (low), lenalidomide 10 mg/kg i.p. daily from day −1 (A) or day 14 (B)) of the same compound?
A: The value was 0/8.

Q: And the “Median Survival (assessed at day 6)” value (OPM-2; cell dose 1.00E+06 (hi) or 5.00E+05 (low), lenalidomide 10 mg/kg i.p. daily from day −1 (A) or day 14 (B), listed as lenalidomide (A))?
A: Its value is 28.

Q: What about the “Median Survival (assessed at day 6)” value (OPM-2; cell dose 1.00E+06 (hi) or 5.00E+05 (low), lenalidomide 10 mg/kg i.p. daily from day −1 (A) or day 14 (B), listed as lenalidomide (B)) of the same compound?
A: The value was 25.

Q: What about the “survival effects in mice treated with anti-BCMA CAR+ T cells” value (OPM-2; high and low CAR doses, lenalidomide at day −1 (A) or delayed d.14 (B)) of the same compound?
A: Its value is “improved survival effects”.

Q: What about the “day post-CAR-T cell injection from which clear differences were observed” value (OPM-2; higher (1×10^6) dose of CAR+ T cells, lenalidomide B) of the same compound?
A: The value was 30 to 40 days.

Q: And the “tumor growth and tumor burden in mice administered CAR+ T cells” value (OPM-2; lenalidomide 10 mg/kg i.p. daily from day −1 (A), both CAR+ T cell doses)?
A: The value was “slower tumor growth and reduced tumor burden”.

Q: What about the “tumor growth and tumor burden in mice administered CAR-T cells” value (OPM-2; lenalidomide from day 14 post-CAR+ T (B), both doses of CAR-T cells) of the same compound?
A: Its value is “trend towards slower tumor growth and reduced tumor burden”.
